From patent US20220340566A1, “BENZYL AMINE-CONTAINING 5,6-HETEROAROMATIC COMPOUNDS USEFUL AGAINST MYCOBACTERIAL INFECTION” (priority 2019, published 2022)

What was measured:
[1] = test system: Mycobacterium avium ATCC700898; assay: Determination of IC85 against M. avium (resazurin fluorescence); format: cell-based; details: Mycobacterium avium, ATCC700898, M. avium ATCC700898, CAMHB medium, 37° C., 3 days incubation then resazurin, fluorescence one day later; read-out: IC85
[2] = Metabolic stability test in pooled human liver microsomes; format: in vitro ADME; details: human liver microsomes 0.5 mg protein/mL, 1 mmol/L NADPH, 37° C., 30 minutes
Procedure, shortened: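 Remaining-rate readout: parent compound left after 30 min versus 0 min (set as 100%), measured by LC/MS/MS or SPE/MS. Oxidative reaction ran at 37° C. with 1 mmol/L NADPH, 0.5 mg protein/mL pooled human microsomes, 50 mmol/L Tris-HCl pH 7.4 buffer.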

Row | Structure (SMILES) | IC85 [1] [nM] | MS_h_% (remaining amount of compound after reaction, 0 minute = 100%) [2] [%]
1 | Cc1ccn2c(C(=O)NCc3ccc(N4CCC(c5ccc(OC(F)(F)F)cc5)CC4)c(Cl)c3)c(C)nc2c1.Cl [Compound I-1-82] | 500 | 98
2 | Cc1nc2ccc(F)cn2c1C(=O)NCc1ccc(N2CCC(c3ccc(OC(F)(F)F)cc3)CC2)c(F)c1.Cl [Compound I-1-64] | 79 | 94
3 | [2H]c1c(C([2H])([2H])[2H])c([2H])n2c(C(=O)NCc3ccc(S(F)(F)(F)(F)F)cc3)c(C)nc2c1[2H] [Compound I-3-35] | 110 | 71.3
4 | Cc1ccn2c(C(=O)NCc3ccc(N4CCC(c5ccc(OC(F)(F)F)cc5)CC4)cc3F)c(C)nc2c1.Cl [Compound I-1-81] | 330 | 94
5 | CCc1nc2ccc(Cl)cn2c1C(=O)NCc1ccc(N2CCC(c3ccc(OC(F)(F)F)cc3)CC2)c(F)c1.Cl [Compound I-1-62] | 7.2 | 82
6 | Cc1nc2ccc(Cl)cn2c1C(=O)NCc1ccc(N2CCN(c3ccc(OC(F)(F)F)cc3)C[C@H]2C)c(F)c1 [Compound I-1-37] | 36 | 76
7 | Cc1nc2ccc(Br)cn2c1C(=O)NCc1ccc(N2CCC(c3ccc(F)cc3)CC2)cc1 [Compound I-3-37] | 16 | 68
8 | CCc1nc2ccc(Cl)cn2c1C(=O)NCc1ccc(N2CCN(c3ccc(OC(F)(F)F)cc3)C3(CCCC3)C2)c(F)c1 [Compound I-2-16] | 86 | 58.2
9 | Cc1nc2ccc(Br)cn2c1C(=O)NCc1ccc(N2CCN(c3ccc(C(F)(F)F)cn3)CC2)c(F)c1 [Compound I-2-11] | 20 | 71.7
10 | CCCCOc1ccc(N2CCC(c3ccc(CNC(=O)c4c(CC)nc5ccc(Cl)cn45)c(F)c3)CC2)cc1.Cl [Compound I-1-145] | 16 | 80
11 | Cc1nc2ccc(F)cn2c1C(=O)NCc1ccc(N2CCN(c3ccc(OC(F)(F)F)cc3)[C@@H](C)C2)cc1 [Compound I-3-23] | 15 | 77.8
